Measurements published in PMC8040948 (Journal of medicinal chemistry, 2020).
Converted amounts (≈) assume the structure as drawn. Where two headings read alike, the source gives them in different places.

How the values were obtained:
[1] = Plasma protein binding in three species
[2] = biological target: T1, CYP3A4 (Homo sapiens, UniProt P08684); assay: CYP3A4 inhibition
[3] = Aqueous solubility, pION method; conditions: Table 5, pION method
[4] = Pharmacokinetics in the rat, ip and iv
[5] = biological target: T2, CYP1A2 (Homo sapiens, UniProt P05177); assay: CYP1A2 inhibition
T2 sequence (P05177 1-516): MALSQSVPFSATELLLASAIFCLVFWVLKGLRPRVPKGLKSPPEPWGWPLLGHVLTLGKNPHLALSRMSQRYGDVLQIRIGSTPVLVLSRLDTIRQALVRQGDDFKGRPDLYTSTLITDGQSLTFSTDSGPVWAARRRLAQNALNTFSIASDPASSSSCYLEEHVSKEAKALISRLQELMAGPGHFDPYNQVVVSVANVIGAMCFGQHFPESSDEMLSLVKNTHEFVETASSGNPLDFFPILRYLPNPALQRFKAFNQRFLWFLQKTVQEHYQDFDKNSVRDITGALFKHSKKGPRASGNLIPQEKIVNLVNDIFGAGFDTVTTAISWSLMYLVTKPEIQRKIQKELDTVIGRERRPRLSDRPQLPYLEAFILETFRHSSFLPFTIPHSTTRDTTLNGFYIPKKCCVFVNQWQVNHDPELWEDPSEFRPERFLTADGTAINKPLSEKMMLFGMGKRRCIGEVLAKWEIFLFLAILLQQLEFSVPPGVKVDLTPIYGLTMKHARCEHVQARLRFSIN

[6] = human, rat, and mouse plasma, ref Yu et al.[23]; cited from earlier work
[7] = biological target: CYP2C9 (Homo sapiens, UniProt P11712); conditions: read-out: CYP2C9 (IC50); ref Yu et al.[23]; cited from earlier work
[8] = biological target: T1, CYP3A4; conditions: read-out: CYP3A4 (IC50); ref Yu et al.[23]; cited from earlier work
[9] = human (h) microsomes; ref Yu et al.[23]; cited from earlier work
[10] = ref Yu et al.[23]; cited from earlier work
[11] = ref Yu et al.[23]; cited from earlier work; remark: listed apart in the source

T1 sequence (P08684 whole entry): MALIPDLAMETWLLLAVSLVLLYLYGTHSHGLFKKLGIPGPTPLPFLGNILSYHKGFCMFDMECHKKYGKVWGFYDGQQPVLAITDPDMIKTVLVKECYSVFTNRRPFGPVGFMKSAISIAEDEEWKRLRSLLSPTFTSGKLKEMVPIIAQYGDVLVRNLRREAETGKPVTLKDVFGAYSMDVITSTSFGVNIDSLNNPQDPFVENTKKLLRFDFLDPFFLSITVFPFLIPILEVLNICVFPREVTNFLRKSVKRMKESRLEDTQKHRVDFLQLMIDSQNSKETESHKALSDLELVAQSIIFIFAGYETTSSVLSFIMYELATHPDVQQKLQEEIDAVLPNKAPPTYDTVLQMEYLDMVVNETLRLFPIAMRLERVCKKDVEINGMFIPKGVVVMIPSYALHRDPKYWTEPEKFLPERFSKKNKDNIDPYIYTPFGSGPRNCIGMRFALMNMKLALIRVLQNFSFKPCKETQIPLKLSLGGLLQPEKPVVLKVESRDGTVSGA
Chain of CYP2C9 (P11712 whole entry): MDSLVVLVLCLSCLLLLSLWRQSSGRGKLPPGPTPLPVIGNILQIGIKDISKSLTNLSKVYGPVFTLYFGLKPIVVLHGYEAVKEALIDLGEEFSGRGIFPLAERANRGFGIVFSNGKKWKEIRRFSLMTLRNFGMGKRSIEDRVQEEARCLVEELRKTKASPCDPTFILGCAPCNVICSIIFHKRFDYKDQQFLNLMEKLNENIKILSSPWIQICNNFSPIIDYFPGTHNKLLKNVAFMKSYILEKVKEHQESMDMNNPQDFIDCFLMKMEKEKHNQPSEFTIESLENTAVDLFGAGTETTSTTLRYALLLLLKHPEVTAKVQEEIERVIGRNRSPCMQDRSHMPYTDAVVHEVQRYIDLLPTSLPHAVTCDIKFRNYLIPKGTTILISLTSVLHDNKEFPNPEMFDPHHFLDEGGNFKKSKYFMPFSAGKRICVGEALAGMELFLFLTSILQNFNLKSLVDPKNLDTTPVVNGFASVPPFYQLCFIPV

| SMILES | plasma protein binding [1] | IC50 [2] [µM] | solubility ([3]; pH 4, aqueous solubility (pH 4.0, μg/mL), pH 4.0, mean ± SD) [mg/mL] | solubility ([3]; pH 7.4, aqueous solubility (pH 7.4, μg/mL), pH 7.4, mean ± SD) [mg/mL] | time at which maximal plasma concentration was reached [4] [h] | plasma concentration at the 12 h time point ([4]; highest dose (10 mg/kg), 12 h) [ng/kg] | IC50 [5] [µM] | plasma stability (three species) (% remaining at 120 min) [6] | IC50 [7] [µM] | IC50 [8] [µM] | microsomal stability (t1/2, min) [9] [min] | simulated gastric fluid (% remaining at 120 min) [10] [%] | simulated intestinal fluid (% remaining at 120 min) [11] [%] |
| --- | --- | --- | --- | --- | --- | --- | --- | --- | --- | --- | --- | --- | --- |
| O=C(O)c1cc(-c2ccc(C34CCN(CC3)CC4)cc2)cc(-n2cc(-c3ccc(C(F)(F)F)cc3)nn2)c1 [Compound 18, 4′-(Quinuclidin-4-yl)-5-(4-(4-(trifluoromethyl)phenyl)-1H-1,2,3-triazol-1-yl)-[1,1′-biphenyl]-3-carboxylic Acid] | high | 9.94 | 0.0144 ± 0.0003 (≈ 27.8 µM) | < 0.0001 | 3 to 4 | 200 to 400 | 14.1 |  |  |  |  |  |  |
| NC(=O)c1ccc(-c2cc(C(=O)O)cc(-n3cc(-c4ccc(C(F)(F)F)cc4)nn3)c2)cc1 [Compound 22] |  |  |  |  |  |  |  | 94–100% | > 30 | > 30 | 145 | 100 | 100 |
